Entries after “also recorded” stand apart in the source; their conditions may differ. Like-named read-outs stand apart in the source and are kept apart here.
How the values were obtained:
[1] = target: human OAT3 (organic anion transporter3) (Homo sapiens (Human), UniProt Q8TCC7); assay: hOAT3 mediated uptake in MDCK-II cells; type: in vitro ADME; settings: for Cellular Accumulation (control): control vector cells of hOAT3 test; for Cellular Accumulation (transporter): hOAT3 expressing MDCK-II cells
Protocol: Experimental: The uptake test system was comprised of a polarized monolayer of MCDK-II cells grown on permeable supports. The MDCK-II cells were treated to express the transporter of interest or treated with a control vector.
The uptake of 2 μM [^3H]-p-aminohippurate (PAH) and 0.75 μM [^3H]-estrone-3-sulfate (E-3-S) in the absence and presence of the reference inhibitor was determined by radiometric detection. The uptake of CMX157 and tenofovir was in the absence and presence of the reference inhibitor or 20% human serum was determined by LC/MS/MS. Experiments were performed under the same conditions for the cells expressing the transporter or those treated with the control vector.
Net Transporter Mediated Uptake=(Cellular accumulation in the presence of the transporter)−(Cellular accumulation in the absence of the transporter) Results: The net hOAT1 mediated uptake of tenofovir in the presence and absence of 100 μM probenecid or 20% human serum is shown in FIG. 8. The transport of tenofovir is inhibited by probenecid and relatively unchanged by the presence of 20% human serum. OAT3 also appeared to mediate the transport of tenofovir. The effect of probenecid, however, was minimal. The presence of 20% human serum in the OAT3 experiment reduced the OAT3 mediated transport of tenofovir.

[2] = system: human PBMCs; settings: activated human PBMCs, 10 nM CMX157 (Lanier 2010); cited from earlier work
[3] = system: HIV-1 subtypes (A-G, O); assay: Activity against HIV-1 subtypes in PBMCs; type: cell-based; settings: Human immunodeficiency virus 1, PBMC
[4] = target: human OAT1 (organic anion transporter1) (Homo sapiens (Human), UniProt Q4U2R8); assay: hOAT1 mediated uptake in MDCK-II cells; settings: for Cellular Accumulation (control): control vector cells of hOAT1 test; for Cellular Accumulation (transporter): hOAT1 expressing MDCK-II cells
[5] = Phase I single dose study, safety and tolerability; type: in vivo, human; settings: healthy volunteers, single doses 25 mg to 400 mg
Protocol: (§1) The study was a randomized, blinded, dose escalation trial to evaluate safety, tolerability, and pharmacokinetics. Healthy volunteers in each cohort (6 active/2 placebo) received a single dose of 25, 50, 100, 200 or 400 mg. An additional cohort received a standard dose of Viread for comparison of TFV-PP levels. For tenofovir anabolite analysis, PBMCs were lysed with 70% ice cold methanol and centrifuged; supernatants were analyzed using LC/MS/MS. The clinical samples were split into two aliquots. One aliquot was used for analysis of CMX157; following addition of an internal standard, these samples were evaporated to dryness prior to reconstitution and analysis. The second aliquot was for analysis of TFV, TFV-monophosphate and TFV-diphosphate; following addition of internal standards, samples were vortexed and centrifuged prior to analysis.

[6] = Phase I single dose study, TFV-diphosphate in PBMCs of healthy volunteers; type: in vivo, human; settings: single 400 mg dose of CMX157
Protocol: as §1

[7] = system: XMRV; assay: XMRV antiviral cytoprotection assay (PG-4 cells, XTT); type: cell-based; settings: 144 h, 6 day assay, read-out: EC50s for XMRV
Protocol: An XMRV antiviral cytoprotection assay was conducted using PG-4 cells (ATCC# CRL-2032; feline astrocytes) and XMRV was collected from the supernatant of 22Rv1 human prostate cancer cells (ATCC# CRL-2505). Inhibition of cytopathic effect was quantified using XTT following a 6 day assay. Ribavirin and AZT were evaluated in parallel as control compounds.

[8] = Phase I single dose study, plasma pharmacokinetics; type: in vivo, human; settings: for Cmax / AUC(0-inf): human, plasma; for AUC(0-inf): read-out: CMX157 AUCINF
Protocol: as §1

## CCCCCCCCCCCCCCCCOCCCOP(=O)(O)CO[C@H](C)Cn1cnc2c(N)ncnc21 [CMX157, 3-(hexadecyloxy)propyl hydrogen ((R)-1-(6-amino-9H-purin 9-yl)propan-2-yloxy)methylphosphonate]
[1]
  substrate for human OAT3: did not appear to be a substrate
[1]; + 100 μM probenecid
  Cellular Accumulation (control): 49.5 ± 2.65 pmol/min/cm^2
  Cellular Accumulation (transporter): 26.1 ± 7.59 pmol/min/cm^2
[1]; + 20% human serum
  Cellular Accumulation (control): 4.90 ± 1.57 pmol/min/cm^2
  Cellular Accumulation (transporter): 6.16 ± 0.396 pmol/min/cm^2
[1]; substrate alone (E3S 0.75 μM)
  Cellular Accumulation (control): 39.5 ± 11.6 pmol/min/cm^2
  Cellular Accumulation (transporter): 30.7 pmol/min/cm^2
[1]; hOAT3, + 100 μM probenecid
  Net Transporter Mediated Cellular Accumulation: −23.4 ± 7.59 pmol/min/cm^2
[1]; hOAT3, + 20% human serum
  Net Transporter Mediated Cellular Accumulation: 1.26 ± 0.396 pmol/min/cm^2
[1]; hOAT3, substrate alone (E3S 0.75 μM)
  Net Transporter Mediated Cellular Accumulation: −8.72 pmol/min/cm^2
[2]
  TFV-diphosphate produced: 70 fmoles per million cells
[3]; previously tested, read-out: IC50s against HIV-1 subtypes (A-G, O)
  IC50: 1 to 7 nM
[3]; read-out: EC50 against all major subtypes of HIV-1 in PBMCs
  EC50: 0.2 to 7.18 nM
[4]; + 100 μM probenecid
  Cellular Accumulation (control): 40.4 ± 5.17 pmol/min/cm^2
  Cellular Accumulation (transporter): 25.9 ± 4.65 pmol/min/cm^2
[4]; + 20% human serum
  Cellular Accumulation (control): 6.46 ± 0.168 pmol/min/cm^2
  Cellular Accumulation (transporter): 5.51 ± 1.70 pmol/min/cm^2
[4]; substrate alone (PAH 2 μM)
  Cellular Accumulation (control): 50.3 ± 1.30 pmol/min/cm^2
  Cellular Accumulation (transporter): 37.3 ± 0.0465 pmol/min/cm^2
[4]; hOAT1, + 100 μM probenecid
  Net Transporter Mediated Cellular Accumulation: −14.5 ± 4.65 pmol/min/cm^2
[4]; hOAT1, + 20% human serum
  Net Transporter Mediated Cellular Accumulation: −0.954 ± 1.70 pmol/min/cm^2
[4]; hOAT1, substrate alone (PAH 2 μM)
  Net Transporter Mediated Cellular Accumulation: −13.0 ± 0.0465 pmol/min/cm^2
[5]
  serious and remarkable adverse events: No SAEs or remarkable AEs were reported
  subjects reporting mild headache: 3
  tolerability: well tolerated
[6]
  TFV-diphosphate in PBMCs: measurable in all subjects; also recorded: measurable in PBMCs from all patients
  TFV-diphosphate in PBMCs 6 days after dosing: all but one had detectable levels
[7]
  EC50: 3 to 500 nM
[8]; 25 mg to 400 mg single oral dose
  change of CMX157 plasma Cmax and AUC with dose: approximate linear increase; also recorded: increased linearly with dose
[8]; oral, all single dose groups (25 to 400 mg), read-out: Cmax levels
  Cmax: > 10 nM
[8]; single oral dose CMX157 200 mg, mean
  AUC(0-inf): 210 ng·h/mL
[8]; single oral dose CMX157 200 mg, mean, read-out: CMX157 Cmax
  Cmax: 74 ng/mL
[8]; single oral dose CMX157 400 mg, mean
  AUC(0-inf): 376 ng·h/mL
[8]; single oral dose CMX157 400 mg, mean, read-out: CMX157 Cmax
  Cmax: 165 ng/mL
